Test results taken from article PMC10601436 (ACS Omega, 2023).
Peptide text beside a SMILES is read from it.

Molecular target: hDPP-IV (Homo sapiens, UniProt P27487)
Test: DPP-IV inhibitory assay
Type: biochemical

Sequence of hDPP-IV (P27487 whole entry): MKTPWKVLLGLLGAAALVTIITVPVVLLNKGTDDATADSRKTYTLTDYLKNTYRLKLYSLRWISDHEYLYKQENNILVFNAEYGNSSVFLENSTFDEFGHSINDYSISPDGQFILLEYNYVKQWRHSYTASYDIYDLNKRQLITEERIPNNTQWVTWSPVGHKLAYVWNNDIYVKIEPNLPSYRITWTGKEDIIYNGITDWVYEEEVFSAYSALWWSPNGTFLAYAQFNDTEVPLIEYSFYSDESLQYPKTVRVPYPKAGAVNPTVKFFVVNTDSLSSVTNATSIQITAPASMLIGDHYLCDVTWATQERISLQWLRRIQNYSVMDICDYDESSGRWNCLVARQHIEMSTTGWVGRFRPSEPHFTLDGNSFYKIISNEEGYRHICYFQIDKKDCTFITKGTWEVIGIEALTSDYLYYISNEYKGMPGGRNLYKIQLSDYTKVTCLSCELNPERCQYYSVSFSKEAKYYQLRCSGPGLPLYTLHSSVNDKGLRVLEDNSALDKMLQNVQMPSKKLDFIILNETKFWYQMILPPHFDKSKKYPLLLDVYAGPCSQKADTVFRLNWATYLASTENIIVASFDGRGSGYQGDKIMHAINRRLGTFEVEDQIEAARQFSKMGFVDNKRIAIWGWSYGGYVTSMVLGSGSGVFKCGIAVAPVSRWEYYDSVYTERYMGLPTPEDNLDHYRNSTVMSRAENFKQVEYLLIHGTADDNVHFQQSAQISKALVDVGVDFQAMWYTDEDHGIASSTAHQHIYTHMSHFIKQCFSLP

Row | Compound | IC50 [µM]
1 | CSCC[C@H](NC(=O)[C@H](CCCNC(=N)N)NC(=O)[C@@H](N)Cc1c[nH]c2ccccc12)C(=O)O [WRM] (H-Trp-Arg-Met-OH) | 897
2 | N=C(N)NCCC[C@H](NC(=O)[C@@H](N)Cc1c[nH]c2ccccc12)C(=O)N[C@@H](Cc1ccc(O)cc1)C(=O)O [WRY] (H-Trp-Arg-Tyr-OH) | 297
3 | CSCC[C@H](NC(=O)[C@@H](NC(=O)[C@@H](N)Cc1c[nH]c2ccccc12)C(C)C)C(=O)O [WVM] (H-Trp-Val-Met-OH) | 317
4 | N[C@@H](Cc1c[nH]c2ccccc12)C(=O)N1CCC[C@H]1C(=O)N[C@@H](Cc1ccc(O)cc1)C(=O)O [WPY] (H-Trp-Pro-Tyr-OH) | 304
5 | CC(C)C[C@H](NC(=O)[C@@H]1CCCN1C(=O)[C@@H](N)Cc1c[nH]c2ccccc12)C(=O)O [WPL] (H-Trp-Pro-Leu-OH) | 461
6 | N=C(N)NCCC[C@H](NC(=O)[C@@H](N)Cc1c[nH]c2ccccc12)C(=O)N[C@@H](CCC(N)=O)C(=O)O [WRQ] (H-Trp-Arg-Gln-OH) | 286
7 | CC(C)C[C@H](NC(=O)[C@@H](NC(=O)[C@@H](N)Cc1c[nH]c2ccccc12)C(C)C)C(=O)O [WVL] (H-Trp-Val-Leu-OH) | 399
8 | CC(C)[C@H](NC(=O)[C@@H](N)Cc1c[nH]c2ccccc12)C(=O)N[C@H](C(=O)O)[C@@H](C)O [WVT] (H-Trp-Val-Thr-OH) | 336
9 | N=C(N)NCCC[C@H](NC(=O)[C@@H](N)Cc1c[nH]c2ccccc12)C(=O)N[C@@H](CC(N)=O)C(=O)O [WRN] (H-Trp-Arg-Asn-OH) | 313
10 | N=C(N)NCCC[C@H](NC(=O)[C@@H](N)Cc1c[nH]c2ccccc12)C(=O)N1CCC[C@H]1C(=O)O [WRP] (H-Trp-Arg-Pro-OH) | 742
11 | CC(C)[C@H](N)C(=O)N1CCC[C@H]1C(=O)N[C@H](C(=O)N1CCC[C@H]1C(=O)N[C@@H](Cc1c[nH]cn1)C(=O)O)C(C)C [VPVPH] (H-VPVPH-OH) | 51.1
12 | CC[C@H](C)[C@H](N)C(=O)N1CCC[C@H]1C(=O)N[C@H](C(=O)N1CCC[C@H]1C(=O)N[C@H](C(=O)O)[C@@H](C)CC)[C@@H](C)CC [IPIPI] (H-IPIPI-OH) | 47.5
13 | N[C@@H](Cc1c[nH]c2ccccc12)C(=O)N1CCC[C@H]1C(=O)N[C@@H](CS)C(=O)O [WPC] (H-Trp-Pro-Cys-OH) | 739
14 | N=C(N)NCCC[C@H](NC(=O)[C@@H](N)Cc1c[nH]c2ccccc12)C(=O)N[C@@H](Cc1c[nH]cn1)C(=O)O [WRH] (H-Trp-Arg-His-OH) | 277

Next, values leading:

Row | IC50 [µM] | Compound
15 | 215 | CC(C)[C@H](NC(=O)[C@@H](N)Cc1c[nH]c2ccccc12)C(=O)N[C@@H](Cc1ccc(O)cc1)C(=O)O [WVY] (H-Trp-Val-Tyr-OH)
16 | 210 | N=C(N)NCCC[C@H](NC(=O)[C@@H](N)Cc1c[nH]c2ccccc12)C(=O)N[C@@H](CS)C(=O)O [WRC] (H-Trp-Arg-Cys-OH)
17 | 151 | CC(C)C[C@H](NC(=O)[C@H](CCCNC(=N)N)NC(=O)[C@@H](N)Cc1c[nH]c2ccccc12)C(=O)O [WRL] (H-Trp-Arg-Leu-OH)
18 | 196 | NC(=O)CC[C@H](NC(=O)[C@@H]1CCCN1C(=O)[C@@H](N)Cc1c[nH]c2ccccc12)C(=O)O [WPQ] (H-Trp-Pro-Gln-OH)
19 | 183 | N[C@@H](Cc1c[nH]c2ccccc12)C(=O)N1CCC[C@H]1C(=O)N[C@@H](Cc1c[nH]c2ccccc12)C(=O)O [WPW] (H-Trp-Pro-Trp-OH)
20 | 129 | NC(=O)C[C@H](NC(=O)[C@@H]1CCCN1C(=O)[C@@H](N)Cc1c[nH]c2ccccc12)C(=O)O [WPN] (H-Trp-Pro-Asn-OH)
21 | 247 | CC(C)[C@H](NC(=O)[C@@H](N)Cc1c[nH]c2ccccc12)C(=O)N[C@@H](CO)C(=O)O [WVS] (H-Trp-Val-Ser-OH)
22 | 204 | N=C(N)NCCC[C@H](NC(=O)[C@@H](N)Cc1c[nH]c2ccccc12)C(=O)N[C@@H](CC(=O)O)C(=O)O [WRD] (H-Trp-Arg-Asp-OH)
23 | 257 | CC(C)[C@H](NC(=O)[C@@H](N)Cc1c[nH]c2ccccc12)C(=O)N[C@@H](Cc1c[nH]cn1)C(=O)O [WVH] (H-Trp-Val-His-OH)
